Source: the NIST ThermoML archive (doi:10.1016/j.jct.2019.07.007)

Assay: wn = mass fraction of the nth substance listed
Conditions: 101 kPa, Liquid, Concentric cylinders viscometry

CC(O)CN(C)C (centres undefined) [1-(dimethylamino)-2-propanol] + O
viscosity [mPa·s]
Conditions | 303.2 K | 313.2 K | 323.2 K
w1 = 0.3 | 3.1 | 2.18 | 1.66
w1 = 0.4 | 4.56 | 3.08 | 2.19
w1 = 0.5 | 6.01 | 3.96 | 2.79
